Measurements as given in patent US20090294381A1, “METHODS FOR CONTROLLING PH IN WATER SANITIZED BY CHEMICAL OR ELECTROLYTIC CHLORINATION” (ZODIAC POOL CARE, INC., priority 2005, published 2009).
Where two headings read alike, the source gives them in different places.

How the values were obtained:
[1] = cited from earlier work
[2] = tested on: Chlorella vulgaris; experiment: Algae growth in nutrient medium, serial dilution tubes, visual bottom pellicle formation; assay type: cell-based; design: key: +++ indicates good growth; ++ indicates scant growth; + indicates very low growth; − indicates no growth
Description: An algae nutrient medium was prepared by mixing the following with 940 mL deionized (DI) water:
Primary stocks were made by including each of the test compounds in the table below in DI as 100 mL aliquots of 1000 ppm solutions. Working stocks in algae media were made as 128 ppm solutions (13 mL/100 mL DI). These solutions were serially diluted and placed into disposable borosilicate tubes, each containing 5 mL of algae medium. The highest theoretical concentration of each compound tested was 64 ppm; as a result of the serial dilution, concentrations of 32, 16, 8, 4, 2, 1, 0.5, and 0.25 ppm were tested. Each tube as inoculated with 50 μL of 10-12 day old Chlorella vulgaris, having an approximate density of 3.0×10^5 cells/mL. Growth was evaluated in a semi-quantitative fashion by visually observing bottom pellicle formation, which was compared to 2 controls. In the table below, +++ indicates good growth, ++ indicates scant growth, + indicates very low growth, and − indicates no growth.

[3] = Phosphate removal and turbidity in 250 gallon mini-pool
Description: A 250 gallon mini-pool was filled with tap water and balanced with calcium chloride, sodium bicarbonate, sodium bisulfate, and sodium hypochlorite. Sufficient sodium phosphate was added to the pool to give a phosphate concentration of approximately 1.0 ppm (calculated as ortho-phosphate). While mixing, lanthanum chloride was added to the water, where it combined with the phosphate and caused formation of a precipitate. The amount of lanthanum chloride added was sufficient to reduce phosphate concentration to less than 100 ppb. The water was allowed to mix (via stirring) for 15 minutes. […] Samples were taken at intervals during the study, and analyzed for turbidity, phosphate level, and lanthanum level, and in some cases, for pH and total alkalinity. […]
A 250 gallon mini-pool was filled with tap water and balanced with calcium chloride, sodium bicarbonate, sodium bisulfate, and sodium hypochlorite. Sufficient sodium phosphate was added to the pool to give a phosphate concentration of approximately 1.0 ppm (calculated as ortho-phosphate). […] Samples were taken at intervals during the study, and analyzed for turbidity, phosphate level, and zinc level, and in some cases, for pH and total alkalinity. […]

[4] = Phosphate removal in full sized swimming pools via Nature2 G cartridge; conditions: Example 6: 7 pools, 15,000 to 27,000 gallons, about 1.0 ppm phosphate, 900 grams per cartridge
Source text: Sufficient sodium phosphate was broadcast to water in 7 full sized swimming pools, ranging in size from 15,000 to 27,000 gallons, to give a phosphate concentration of about 1.0 ppm (calculated as ortho-phosphate). The pools were allowed to mix for at least one hour. A Nature^2 G sized cartridge containing 900 grams of lanthanum chloride was connected to each pool water circulation system, and pumping through the cartridge was initiated, delivering lanthanum to the water. Water samples were taken at intervals and analyzed to determine turbidity, phosphate levels, and lanthanum levels, and in some cases, pH and total alkalinity. Six of the pools had surface cleaners in constant use and the remaining pool used a pool service. Each of the pools was filtered using a pleated cartridge filter. Turbidity of 6 of the 7 pools returned to starting levels (before lanthanum was added to precipitate out the phosphate) after 48 hours. A minimum of 90% of phosphate was removed from each of the pools.

## [OH][Al]([OH])[OH] [Al(OH)3]
[1]; metal hydroxides
  log Ksp: −32.7

## O=P([O-])([O-])[O-].[Al+3] [AlPO4]
[1]; metal phosphates
  log Ksp: −20.0

## [Ce+3].[OH-].[OH-].[OH-] [Ce(OH)3]
[1]; metal hydroxides
  log Ksp: −22.3

## [Ce+4].[OH-].[OH-].[OH-].[OH-] [Ce(OH)4]
[1]; metal hydroxides
  log Ksp: −47.7

## O=P([O-])([O-])[O-].[Ce+3] [CePO4]
[1]; metal phosphates
  log Ksp: −26.2

## O=P([O-])([O-])[O-].O=P([O-])([O-])[O-].[Cu+2].[Cu+2].[Cu+2] [Cu3(PO4)2]
[1]; metal phosphates
  log Ksp: −36.9

## [Cu+2].[OH-].[OH-] [Cu(OH)2]
[1]; metal hydroxides
  log Ksp: −19.3

## O=S(=O)([O-])[O-].[Cu+2] [CuSO4]
[2]; 0.25 ppm test compound
  Growth of Chlorella vulgaris (bottom pellicle formation): ++
[2]; 0.5 ppm test compound
  Growth of Chlorella vulgaris (bottom pellicle formation): ++
[2]; 1 ppm test compound
  Growth of Chlorella vulgaris (bottom pellicle formation): +
[2]; 2 ppm test compound
  Growth of Chlorella vulgaris (bottom pellicle formation): −
[2]; 4 ppm test compound
  Growth of Chlorella vulgaris (bottom pellicle formation): −
[2]; 8 ppm test compound
  Growth of Chlorella vulgaris (bottom pellicle formation): −
[2]; 16 ppm test compound
  Growth of Chlorella vulgaris (bottom pellicle formation): −
[2]; 32 ppm test compound
  Growth of Chlorella vulgaris (bottom pellicle formation): −
[2]; 64 ppm test compound
  Growth of Chlorella vulgaris (bottom pellicle formation): −

## CCCCCCCCCCCCN.Cl [Dodecylamine HCl]
[2]; 0.25 ppm test compound
  Growth of Chlorella vulgaris (bottom pellicle formation): −
[2]; 0.5 ppm test compound
  Growth of Chlorella vulgaris (bottom pellicle formation): −
[2]; 1 ppm test compound
  Growth of Chlorella vulgaris (bottom pellicle formation): −
[2]; 2 ppm test compound
  Growth of Chlorella vulgaris (bottom pellicle formation): −
[2]; 4 ppm test compound
  Growth of Chlorella vulgaris (bottom pellicle formation): −
[2]; 8 ppm test compound
  Growth of Chlorella vulgaris (bottom pellicle formation): −
[2]; 16 ppm test compound
  Growth of Chlorella vulgaris (bottom pellicle formation): −
[2]; 32 ppm test compound
  Growth of Chlorella vulgaris (bottom pellicle formation): −
[2]; 64 ppm test compound
  Growth of Chlorella vulgaris (bottom pellicle formation): −

## [La+3].[OH-].[OH-].[OH-] [La(OH)3]
[1]; metal hydroxides
  log Ksp: −18.5

## O=P([O-])([O-])[O-].[La+3] [LaPO4]
[1]; metal phosphates
  log Ksp: −25.7

## [OH][Sn][OH] [Sn(OH)2]
[1]; metal hydroxides
  log Ksp: −26.5

## O=P([O-])([O-])[O-].O=P([O-])([O-])[O-].[Zn+2].[Zn+2].[Zn+2] [Zn3(PO4)2]
[1]; metal phosphates
  log Ksp: −35.3

## [OH-].[OH-].[Zn+2] [Zn(OH)2]
[1]; metal hydroxides
  log Ksp: −16.5

## [Cl][La]([Cl])[Cl] [lanthanum chloride]
[3]; Example 5: within two hours of beginning filtration (diatomaceous earth)
  Turbidity reduction: 97%
[4]
  phosphate removed: ≥ 90%

## [Cl-].[Cl-].[Zn+2] [zinc chloride]
[3]; Example 7: start approx. 1.0 ppm phosphate, within 3 hours, sand filtration
  phosphate reduction: more than 90%

## Zinc borate
[2]; 0.25 ppm test compound
  Growth of Chlorella vulgaris (bottom pellicle formation): +
[2]; 0.5 ppm test compound
  Growth of Chlorella vulgaris (bottom pellicle formation): +
[2]; 1 ppm test compound
  Growth of Chlorella vulgaris (bottom pellicle formation): −
[2]; 2 ppm test compound
  Growth of Chlorella vulgaris (bottom pellicle formation): −
[2]; 4 ppm test compound
  Growth of Chlorella vulgaris (bottom pellicle formation): −
[2]; 8 ppm test compound
  Growth of Chlorella vulgaris (bottom pellicle formation): −
[2]; 16 ppm test compound
  Growth of Chlorella vulgaris (bottom pellicle formation): −
[2]; 32 ppm test compound
  Growth of Chlorella vulgaris (bottom pellicle formation): −
[2]; 64 ppm test compound
  Growth of Chlorella vulgaris (bottom pellicle formation): −
